Source: patent publication US10758517B2, “mPGES-1 inhibitor for the treatment of osteoarthritis pain” (Glenmark Pharmaceuticals S.A., priority 2017, dated 2020)

Key:
[1] = Safety and tolerability of single oral doses (Example 1); format: in vivo, human; conditions: single doses up to 1000 mg
Experimental: (§1) In Part 1a, single doses of Compound I of 10 mg (Group A), 30 mg (Group B), 100 mg (Group C), 250 mg (Group D), 500 mg (Group E) and 1000 mg (Group F) were administered after fasting. In each dose group, 6 subjects received Compound I and 2 subjects received placebo.
Adverse events (AEs), vital signs, 12-lead electrocardiogram (ECG), clinical laboratory evaluations and physical examination.
(§2) Summary statistics were presented for the PK, pharmacodynamic (PD) and safety data, as appropriate. PK parameters following single oral doses of Compound I were determined from the plasma concentrations of Compound I using non-compartmental procedures in WinNonlin Dose proportionality was assessed using a power model, with tmax analyzed using the Kruskal-Wallis test. The effect of food on PK was assessed at the 100 and 250 mg doses using a mixed effects model. The effect of age on PK was assessed for elderly (>65 years) versus non-elderly (<65 years) at the 250 mg dose level in Parts 1a and 2, using an analysis of variance (ANOVA) with age as a fixed effect. For PD analyses, percent decrease of ex vivo LPS-induced PGE2 release was calculated. For Part 3, urinary excretion of prostanoid metabolites was also evaluated. The data are presented as absolute, as well as creatinine normalized urinary biomarker amounts, along percent change from baseline over a definite time interval. The percent change from baseline in urinary biomarkers was assessed using an analysis of covariance (ANCOVA) model

[2] = Plasma pharmacokinetics after single oral doses (Example 1); format: in vivo, human; conditions: for dose proportionality of exposure: single oral doses
Experimental: as §1
In Part 2, a dose of 250 mg was administered after fasting. 6 subjects received Compound I and 2 subjects received placebo.
Blood and urine samples for the analysis of plasma and urinary concentrations of Compound I.
as §2

[3] = system: LPS-induced PGE2 release; assay: Ex vivo LPS-induced PGE2 release in whole blood, multiple oral doses for 28 days (Example 2, Part 1); parameters: species or system human; conditions: healthy subjects
Experimental: Part 1 consisted of a MAD, double-blind, sequential-group study in healthy subjects. Twenty-four adult male and female subjects were recruited into 3 cohorts. Subjects were enrolled in a sequential manner in cohorts of 8, each randomized in a ratio of 6:2, to receive Compound I or placebo, respectively, for a duration of 28 days. Three dose levels of Compound I (25, 75 and 130 mg) were studied in Cohorts A, B and C, respectively. For each cohort in Part 1, the planned Compound I, qd dosing occurred in the fasted state in the morning on Days 1 to 28, both inclusive. Subjects in each cohort started dosing on the same day, with no less than 5 minutes dose interval between subjects on Day 1.
Concentrations below the limit of quantification were treated as ½ the lower limit of quantification for subsequent calculations.
Time points where unstimulated PGE2 levels were 3 times greater than the mean of unstimulated PGE2 and greater than or equal to half of the baseline for a particular subject were not included in the calculation of these parameters.
Baseline is the mean of Day −1 and pre-dose LPS stimulated PGE2.
Abbreviations: CI=confidence interval; EAUC0-24h=area under the effect-time curve from time zero to 24 hours postdose; Eavg0-24h=the average PGE2 inhibition over 24 hours; Epeak=maximum effect; ETmax=time to reach maximum effect; LS=least squares; N=number of subjects; PGE2=prostaglandin E2; qd=once daily.
^a Median, median difference from placebo and approximate 95% CI.

- dose proportionality of exposure ([2]; 10 to 250 mg dose range): Near proportional increases
- pharmacokinetic differences in elderly subjects ([2]; elderly subjects, single dose 250 mg): No notable pharmacokinetic differences
- dose proportionality of exposure ([2]; higher doses (250 to 1000 mg)): sub-proportional increases
- half-life ([2]; human, plasma, single oral doses 10 to 1000 mg, independent of dose, read-out: mean T1/2): 41.7 to 54.5 h
- Tmax ([2]; human, plasma, single oral doses of 10 and 30 mg, read-out: median Tmax): 2 h
SMILES: CC(C)(C)C(=O)NCc1ccc(Cl)c(-c2nn(-c3ccc(C(F)(F)F)cc3)c(=O)[nH]2)c1 [Compound I, N-(4-chloro-3-(5-oxo-1-(4-(trifluoromethyl)phenyl)-4,5-dihydro-1H-1,2,4-triazol-3-yl)benzyl)pivalamide]
- dose effect on incidence or severity of treatment-emergent AEs [1]: no evidence of a dose effect
- lab abnormalities or ECG findings [1]: No clinically significant lab abnormalities or ECG findings
- tolerability ([1]; healthy adult subjects): well tolerated
- EAUC0-24 h, Difference in LS means (Compound I − placebo) ([3]; Day 1, 25 mg qd): 1225 % · h
- EAUC0-24 h, LS means ([3]; Day 1, 25 mg qd): 1562 % · h
- ETmax (time to reach maximum effect), Median ([3]; Day 1, 25 mg qd): 6.00 h
- ETmax, median difference from placebo ([3]; Day 1, 25 mg qd): -6.00 h
- Eavg0-24 h, Difference in LS means (Compound I − placebo) ([3]; Day 1, 25 mg qd): 51.6%
- Epeak, Difference in LS means (Compound I − placebo) ([3]; Day 1, 25 mg qd): 35.0%
- EAUC0-24 h, Difference in LS means (Compound I − placebo) ([3]; Day 1, 75 mg qd): 1218 % · h
- EAUC0-24 h, LS means ([3]; Day 1, 75 mg qd): 1555 % · h
- ETmax (time to reach maximum effect), Median ([3]; Day 1, 75 mg qd): 23.8 h
- ETmax, median difference from placebo ([3]; Day 1, 75 mg qd): 5.77 h
- Eavg0-24 h, Difference in LS means (Compound I − placebo) ([3]; Day 1, 75 mg qd): 51.2%
- Epeak, Difference in LS means (Compound I − placebo) ([3]; Day 1, 75 mg qd): 26.7%
- EAUC0-24 h, Difference in LS means (Compound I − placebo) ([3]; Day 1, 130 mg qd): 1032 % · h
- EAUC0-24 h, LS means ([3]; Day 1, 130 mg qd): 1369 % · h
- ETmax (time to reach maximum effect), Median ([3]; Day 1, 130 mg qd): 4.00 h
- ETmax, median difference from placebo ([3]; Day 1, 130 mg qd): -10.0 h
- Eavg0-24 h, Difference in LS means (Compound I − placebo) ([3]; Day 1, 130 mg qd): 43.5%
- Epeak, Difference in LS means (Compound I − placebo) ([3]; Day 1, 130 mg qd): 22.3%
- EAUC0-24 h, Difference in LS means (Compound I − placebo) ([3]; Day 10, 25 mg qd): 1461 % · h
- EAUC0-24 h, LS means ([3]; Day 10, 25 mg qd): 1443 % · h
- ETmax (time to reach maximum effect), Median ([3]; Day 10, 25 mg qd): 5.00 h
- ETmax, median difference from placebo ([3]; Day 10, 25 mg qd): -7.00 h
- Eavg0-24 h, Difference in LS means (Compound I − placebo) ([3]; Day 10, 25 mg qd): 61.3%
- Epeak, Difference in LS means (Compound I − placebo) ([3]; Day 10, 25 mg qd): 45.0%
- EAUC0-24 h, Difference in LS means (Compound I − placebo) ([3]; Day 10, 75 mg qd): 1560 % · h
- EAUC0-24 h, LS means ([3]; Day 10, 75 mg qd): 1542 % · h
- ETmax (time to reach maximum effect), Median ([3]; Day 10, 75 mg qd): 12.0 h
- ETmax, median difference from placebo ([3]; Day 10, 75 mg qd): -0.0333 h
- Eavg0-24 h, Difference in LS means (Compound I − placebo) ([3]; Day 10, 75 mg qd): 65.4%
- Epeak, Difference in LS means (Compound I − placebo) ([3]; Day 10, 75 mg qd): 42.7%
- EAUC0-24 h, Difference in LS means (Compound I − placebo) ([3]; Day 10, 130 mg qd): 1392 % · h
- EAUC0-24 h, LS means ([3]; Day 10, 130 mg qd): 1374 % · h
- ETmax (time to reach maximum effect), Median ([3]; Day 10, 130 mg qd): 4.00 h
